Assays:
[1] = test system: MDA-MB231 human breast cancer cells; test: SRB cytotoxicity test, MDA-MB231; format: cell-based; conditions: SRB assay, cultured 3 days
Protocol: (§1) A cytotoxicity test was performed using synthesized selenopsammaplin A and derivatives thereof (Lee S K et al […] Chem Biol Interact 115:215-28).
(§2) The cytotoxicity test was performed on a total of five representative cancer cell lines. The cytotoxicity of each compound was measured using an SRB assay method (human lung cancer cells, A549; human colon cancer cells, HCT116; human breast cancer cells, MDA-MB231; human liver cancer cells, SK-HEP-1; human gastric cancer cells, SNU638).
(§3) Each cell line was sub-cultured once or twice using Roswell Park Memorial Institute (RPMI) medium 1640 (RPMI 1640) or Dulbecco's Modified Eagle's Medium (DMEM) containing 10% fetal bovine serum (FBS) inactivated by heat, 100 units/mL of penicillin, 100 μg/mL of streptomycin, and 250 ng/mL of amphotericin B at 37° C. for 1 week under a 5% CO2 condition. All cells were […] in liquid nitrogen, and then passaged three or more times to be used in the experiment. The effects of compounds on cell growth were measured using a sulforhodamine B (SRB) method (Lee et al (1998) Chemico-Biol Interact 115:215-228).
(§4) Specifically, each human cancer cell line used in the present invention was sub-cultured in an RPMI medium containing 10% FBS, 1% PSF, and the like, and 10 μl of a sample dissolved in 10% DMSO and 190 μl (4-5×10^4 cells/ml) of the cell suspension were added to each well of a 96-well plate and cultured for 3 days. 190 μl of the cell suspension was added to at least 16 wells and cultured for 30 minutes, and used as a zero-day control. The cultured cells were fixed with 10% trichloroacetic acid (TCA) and then stained with an SRB solution, and the staining solution was dissolved with 10 mM Tris-base, and then absorbance at 515 nm was measured. Using the case of culturing in 10% DMSO as a control, cell viability according to each test material treatment was measured using Equation 1 below. Etoposide was used as a positive control. % Viability=(OD(sample)−OD(0-day))/(OD(10% DMSO)−OD(0-day))×100 [Equation 1]
(§5) Assuming that a control not-treated with the sample was set at 100%, the values of sample-treated groups were expressed as percentage with respect to the control, and each test material treatment results were obtained as the mean±SEM of two or three tests. The IC50 value is the concentration of the test material for a 50% survival rate.

[2] = test system: SNU638 human gastric cancer cells; test: SRB cytotoxicity test, SNU638; format: cell-based; conditions: SRB assay, cultured 3 days
Protocol: as §1, §2, §3, §4, §5

[3] = test system: H3K79me2, E-cadherin, vimentin in breast tumors; test: Cancer metastasis markers in tumor tissues, western blot; format: in vivo; conditions: tumors extracted from treated mice
Protocol: To verify that compound 2 is involved in the regulation of key factors such as H3K79me2, E-cadherin, and vimentin in vivo, the effect of compound 2 on the key factors in tumor tissues was analyzed using the following method.
The triple-negative breast cancer cell line MDA-MB-231 was spread at a concentration of 2×10^6 cells/well on a DMEM medium containing 10% FBS in a 6-well plate, cultured at 37° C. for 24 hours under a 5% CO2 condition, and then washed twice with phosphate-buffered saline (PBS). Attached cells were recovered and washed twice with PBS, and then boiling 2× sample loading buffer (250 mM Tris-HCl (pH 6.8), 4% SDS, 10% glycerol, 0.006% bromophenol blue, 2% β-mercaptoethanol, 50 mM sodium fluoride, and 5 mM sodium orthovanadate) was added thereto to disrupt the cells and the cells were left at 100° C. for 10 minutes. After cooling, the cells were stored at […] and […] at 37° C. immediately before use in protein quantification and electrophoresis. 10 μg of proteins were electrophoresed at 100 V for 2 hours using a 12% SDS-polyacrylamide gel (#456-1036, Bio-Rad, Hercules, Calif.). The separated proteins were transferred to a PVDF membrane (ISEQ15150, Millipore, Bedford, Mass.) at 100 V for 1 hour, and a blocking buffer (5% non-fat dry milk in TBS containing 0.1% Tween-20 (TBST)) was injected thereinto to culture the proteins at room temperature for 1 hour. After washing three times with TBST for 5 minutes, the corresponding single antibody was diluted with 5% non-fat dry milk in TBST and allowed to react with the membrane at 4° C. for 18 hours. The membrane [ISEQ 1S150, Millipore, Bedford, Mass.] was washed three times with TBST for 10 minutes, and then horseradish peroxidase (HRP)-conjugated secondary antibodies were diluted with 2.5% non-fat dry milk in TBST at a ratio of 1:2,000 and allowed to react with the membrane at room temperature for 2 hours. […] These were quantified using ImageJ software and are illustrated in FIG. 10B.

MDA-MB-231 cells = test: Cancer cell migration (scratch) test; format: cell-based, human; conditions: MDA-MB-231, scratch, 50-400 nM, 24 hours
Protocol: The triple-negative breast cancer cell line MDA-MB-231 was spread at a concentration of 2×10^6 cells/well on a DMEM medium containing 10% FBS in a 6-well plate, cultured at 37° C. for 24 hours under a 5% CO2 condition, and then washed once with phosphate-buffered saline (PBS). After scratching using a 200 μl tip, the cells were treated with 50-400 nM compound 2 and 400 nM psammaplin A, and then cultured for 24 hours. After washing once with PBS, the degree of migration of cells was photographed using a microscope, and the results thereof are illustrated in FIG. 5A. The degree of scratch healing compared to a control using ImageJ software is illustrated in FIG. 5B.

In the case of O=C(NCC[Se][Se]CCNC(=O)/C(Cc1ccccc1)=N/O)/C(Cc1ccccc1)=N/O [Compound 2, (2E,2′E)-N,N′-(diselenediylbis(ethane-2,1-diyl))bis(2-(hydroxyimino)-3-phenylpropanamide)], the IC50 [1] is reported as 0.06 µM, the IC50 [2] is reported as 0.05 µM and the “E-cadherin in breast tumors” value [3] is reported as “increased in a concentration-dependent manner”. The “histone methylation (H3K79me2) in breast tumors” value [3] was “reduced in a concentration-dependent manner”, the “vimentin in breast tumors” value [3] was “reduced in a concentration-dependent manner” and the “migration of breast cancer cells” value (MDA-MB-231 cells) was “effectively suppressed”.

Reference: US11903912B2, “Composition for preventing and treating breast cancer including selenopsammaplin A as active ingredients” (Seoul National University R & DB Foundation, priority 2019, dated 2024)
